# Data taken from patent publication US12269800B2, “Delivery of therapeutic alkaloid compounds” (priority 2021, dated 2025).
# Like-named read-outs stand apart in the source and are kept apart here.
# Tests used:
# [1] = assay type: physicochemical
# Method: The hydrolysis kinetics was under a certain temperature and measured by LCMS at a certain time interval. The corresponding LCMS chromatograms were recorded and the conversions were calculated. The hydrolysis conditions and the data were summarized in below table. LCMS spectra were obtained using Agilent 1200G1956A or SHIMADZU LCMS-2020. Standard LCMS conditions were as follows (running time 1.55 minutes):
# Acidic condition: Mobile Phase A: 0.0375% TFA in water (v/v). Mobile Phase B: 0.01875% TFA in acetonitrile (v/v); Column: Kinetex EVO C18 30*2.1 mm, 5 μm.
# Basic condition: Mobile Phase A: 0.025% NH3—H2O in water (v/v). Mobile Phase B: Acetonitrile; Column: Kinetex EVO C18 2.1×30 mm, 5 μm.
# Conversion (%)=peak area 1/(peak area 1+peak area 2)*100%, peak area 1 is the integration of hydrolyzed product, peak area 2 is the integration of starting material.
# [2] = 5 µM
# [3] = 5 µM; remark: listed apart in the source
# [4] = Pharmacokinetics of 043 and 001 in mice after oral 043 (75 mg/kg); assay type: in vivo, male C57BL/6 mice
# Method: Total twelve male mice were used in this study. […] The formulation vehicle used was normal saline.
# The plasma and brain concentration-time data of 043 and 001 was used for the pharmacokinetic analysis.
# The extraction procedure for plasma/brain samples and the spiked plasma/brain calibration standards were identical:
# A 25 μL of study sample plasma/brain (dilution applied to some samples) or spiked plasma calibration standard was added to individual pre-labeled micro-centrifuge tubes followed by 100 μL of internal standard prepared in acetonitrile (Glipizide-500 ng/mL) was added except for blank, where 100 μL of acetonitrile was added. Samples were vortexed for 5 minutes. Samples were centrifuged for 10 minutes at a speed of 4000 rpm at 4° C. Following centrifugation, 100 μL of clear supernatant was transferred in 96 well plates and analyzed using LC-MS/MS.
# [5] = assay type: physicochemical; conditions: DI water, 25° C., 0.5 mM
# [6] = Hydrolysis Assay of Example A2, Condition 1 (SGF with pepsin, pH 1.5, 37° C.); assay type: physicochemical; conditions: SGF with pepsin pH 1.5, 37° C., 0.5 mM
# [7] = Plasma Stability Assay of Example A3, human plasma; conditions: % of prodrug compound remaining, 37° C., 0.0 min
# [8] = Plasma Stability Assay of Example A3, mouse plasma; conditions: % of prodrug compound remaining, 37° C.
# [9] = for conversion to 001 in vivo: 2 mg/kg iv in mice; for plasma levels of 001: mouse, iv, 2 mg/kg
# Method: General Procedure for intravenous pharmacokinetic study in mice: Male C57/BL6 mice were used to evaluate each compound, with n=3 mice/time point. Animals were administered through intravenous route with solution formulation at 2 mg/kg dose. […] Following blood collection, immediately, animals were sacrificed, and vena-cava was cut open and blood was drained. […] Brain samples were collected from set of three mice at each time point. […] Brain samples were homogenized using 2 volumes of ice-cold PBS (pH-7.4) of brain weight. […] Concentrations of compound (or compound and metabolite) in mouse plasma and brain samples were determined by fit for purpose LC-MS/MS method.
# [10] = analyte as labelled, single oral administration of 043, 75 mg/kg
# [11] = brain, analyte as labelled, single oral administration of 043, 75 mg/kg
# [12] = plasma, analyte as labelled, single oral administration of 043, 75 mg/kg
SMILES,Condition 2 Conversion (%) ([5]; time 1 min),Condition 2 Conversion (%) ([5]; time 5 min),Condition 2 Conversion (%) ([5]; time 30 min),Condition 2 Conversion (%) ([5]; time 1 h),Condition 2 Conversion (%) ([5]; time 4 h),Condition 2 Conversion (%) ([5]; time 24 h),Condition 1 Conversion (%) ([6]; time 1 min),Condition 1 Conversion (%) ([6]; time 5 min),Condition 1 Conversion (%) ([6]; time 30 min),Condition 1 Conversion (%) ([6]; time 1 h),Condition 1 Conversion (%) ([6]; time 4 h),Condition 1 Conversion (%) ([6]; time 24 h),also measured
"COc1ccc([C@]23CCN(C)[C@H]2CC2(CC3)OCCO2)cc1OC (racemic) [Compound 013, 3′a-(3,4-dimethoxyphenyl)-1′-methyl-spiro[1,3-dioxolane-2,6′-2,3,4,5,7,7a-hexahydroindole]]",,,,,,,,,,,,,"Notes (stability in words) [1]: Stable; conversion to mesembrine ([1]; acidic pH 2.0, 5° C.): not at 5 °C; conversion to mesembrine ([1]; acidic pH 2.0, 37 and 50° C.): converted to mesembrine"
"COc1ccc([C@]23CCN(C)[C@H]2CC2(CC3)SCCS2)cc1OC (racemic) [Compound 014, (7′aS)-3′a-(3,4-dimethoxyphenyl)-1′-methyl-spiro[1,3-dithiolane-2,6′-2,3,4,5,7,7a-hexahydroindole]]",,,,,,,,,,,,,"Notes (stability in words) ([1]; pH = 2.0, 25° C., 0.5 mM, 0.01M HCl, 0-24 h): Stable"
"COc1ccc([C@@]23CCC(=NNC(=O)Nc4ccc(C(=O)O)cc4)C[C@@H]2N(C)CC3)cc1OC (racemic) [Compound 259, 4-[[[(3aS,7aS)-3a-(3,4-dimethoxyphenyl)-1-methyl-2,3,4,5,7,7a-hexahydroindol-6-ylidene]amino]carbamoylamino]benzoic acid]",,,,,,,,,,,,,Human Plasma Prodrug (%) ([2]; 0 min): 100%; Human Plasma Prodrug (%) ([2]; 15 min): >99%; Human Plasma Prodrug (%) ([2]; 30 min): 96.6%; Human Plasma Prodrug (%) ([2]; 60 min): 85.7%; Human Plasma Prodrug (%) ([2]; 120 min): 70.0%; Human Plasma Prodrug (%) ([2]; 240 min): 54.3%; Mouse Plasma Prodrug (%) ([3]; 0 min): 100%; Mouse Plasma Prodrug (%) ([3]; 15 min): 86.2%; Mouse Plasma Prodrug (%) ([3]; 30 min): 81.0%; Mouse Plasma Prodrug (%) ([3]; 60 min): 67.6%; Mouse Plasma Prodrug (%) ([3]; 120 min): 38.7%; Mouse Plasma Prodrug (%) ([3]; 240 min): 19.8%
COc1ccc([C@]23CCN(C)[C@H]2CC2(CC3)OCCO2)cc1OC [Compound 043],,,,,,,,,,,,,"conversion to 001 in vivo ([4]; 75 mg/kg po in mice): efficiently converts to 001 in vivo; brain concentrations quantifiable up to [4, 10]: 4 h; brain exposure-Kp [4, 10]: < 1; AUClast [4, 11]: 1787.23 ng·h/mL; Cmax [4, 11]: 2684.81 ng/mL; Tmax [4, 11]: 30 min; AUClast [4, 12]: 2555.07 ng·h/mL; Cmax [4, 12]: 3392.53 ng/mL; Tmax [4, 12]: 30 min"
"CCCCC(=O)OC1=C[C@@H]2N(C)CC[C@]2(c2ccc(OC)c(OC)c2)CC1 [Compound 268, N-[[(3aS,7aS)-3a-(3,4-dimethoxyphenyl)-1-methyl-3,4,5,7a-tetrahydro-2H-indol-6-yl] pentanoate]",0,0,0,0,0,0,0,0,0,0,0,0,
"COc1ccc([C@@]23CC/C(=N/NC(=O)Nc4ccccc4Cl)C[C@@H]2N(C)CC3)cc1OC [Compound 270, 1-[(Z)—[(3aS,7aS)-3a-(3,4-dimethoxyphenyl)-1-methyl-2,3,4,5,7,7a-hexahydroindol-6-ylidene]amino]-3-(2-chlorophenyl)urea]",,,,,1,1,,,,,1,1,
"COc1ccc([C@]23CCN(C)[C@H]2CC2(CC3)OCC(C34CC5CC(CC(C5)C3)C4)O2)cc1OC (stereo partly drawn) [Compound 281, (3′aS,7′aS)-4-(1-adamantyl)-3′a-(3,4-dimethoxyphenyl)-1′-methyl-spiro[1,3-dioxolane-2,6′-2,3,4,5,7,7a-hexahydroindole]]",0,0,0,0,0,0,0,0,0,0,0,0,
"COc1ccc([C@]23CCN(C)[C@H]2CC2(CC3)Oc3ccccc3O2)cc1OC [Compound 300, (3′aS,7′aS)-3′a-(3,4-dimethoxyphenyl)-1′-methyl-spiro[1,3-benzodioxole-2,6′-2,3,4,5,7,7a-hexahydroindole]]",0,0,0,0,0,0,0,0,0,0,0,0,
COc1ccc([C@@]23CCC(OC(=O)c4ccc(C(F)(F)F)cc4)=C[C@@H]2N(C)CC3)cc1OC [Compound 310],0,0,0,0,0,0,0,0,0,0,0,0,Human Plasma Prodrug (%) [7]: 100.0%; Mouse Plasma Prodrug (%) ([8]; 0.0 min): 100.0%; Mouse Plasma Prodrug (%) ([8]; 15 min): 0.4%; Mouse Plasma Prodrug (%) ([8]; 30 min): 0.1%; Mouse Plasma Prodrug (%) ([8]; 60 min): 0.1%; Mouse Plasma Prodrug (%) ([8]; 120 min): 0.1%; Mouse Plasma Prodrug (%) ([8]; 240 min): 0.1%
"CCC(=O)OC1=C[C@@H]2N(C)CC[C@]2(c2ccc(OC)c(OC)c2)CC1 [Compound 317, [(3aS,7aS)-3a-(3,4-dimethoxyphenyl)-1-methyl-3,4,5,7a-tetrahydro-2H-indol-6-yl] propanoate]",,,,,,,,,,,,,"conversion to 001 in vivo [9]: converts to 001 in vivo; 001 quantifiable in plasma up to ([9]; male, C57BL/6, mouse, in vivo): 60 min; plasma levels of 001 ([9]; in vivo): not detectable"
"COc1ccc([C@@]23CCC(OC(=O)CC(C)C)=C[C@@H]2N(C)CC3)cc1OC [Compound 334, [(3aS,7aS)-3a-(3,4-dimethoxyphenyl)-1-methyl-3,4,5,7a-tetrahydro-2H-indol-6-yl] 3-methylbutanoate]",,,,,,,,,,,,,"conversion to 001 in vivo [9]: converts to 001 in vivo; 001 quantifiable in brain up to ([9]; male, C57BL/6, mouse, in vivo): 2 h; 001 quantifiable in plasma up to ([9]; male, C57BL/6, mouse, in vivo): 60 min; plasma levels of 001 ([9]; in vivo): not detectable"
